5 compounds from patent publication US8933106B2, “2-(4-substituted phenylamino) polysubstituted pyridine compounds as inhibitors of non-nucleoside HIV reverse transcriptase, preparation methods and uses thereof” (Institute of Pharmacology and Toxicology Academy of …, priority 2008, dated 2015) can be followed below.

Converted amounts (≈) assume the structure as drawn. Some results are limits rather than exact numbers.

Data set [1] is described as follows: Cytotoxicity test of the compound (MT-2 cells, XTT). Format: cell-based. The note with it: human, 4th day. The method, then: Please refer to the document (Jiang, S., et al. Antimicrob. Agents Chemother. 2004, 48, 4349-4359). In a 96-pore cell culture plate, 50 μl of different concentrations of compound solutions were respectively mixed with equal-volume of PBS, and incubated at 37° C. for 30 min, and then 100 μl MT-2 (or H9) cells (1×10^5/mL, RPIM 1640 culture medium containing 10% serum) was added, and mixed homogenously, followed by incubation at 37° C. overnight. On the second day, 150 μl of the supernatant was sucked out, and equal-volume of fresh culture medium was replenished, followed by further incubation at 37° C. for 3 days. On the 4th day, 50 μl of a XTT solution (1 mg/mL) containing PMS as freshly prepared was added. After 4 h, OD at 450 nm was tested. The 50% cytotoxicity concentration (CC50) of the compound was calculated using CalcuSyn software.
On the technique in general: Tetrazolium assays rely on reduction of a dye to a coloured formazan, in cell work by metabolically active cells.

A further data set has as its system HIV virus (IIIB). Put plainly: Anti-HIV activity test (H9 cell model), P24 antigen ELISA. In kind it is cell-based. The following applies: for SI(CC50/EC50): H9 cells, ratio of toxicity CC50 value to activity EC50 value; for EC50: Human immunodeficiency virus 1, 96 h, H9 cells infected with HIV (IIIB), 4 days, P24 antigen. As for the experimental part:
(§1) Please refer to the document (J. Med. Chem. 2004, 47, 756-760). Lymphocytes H9 were cultivated in culture medium 1640, under the conditions of 5% CO2, 37° C. The test compound was initially dissolved in DMSO, and then diluted with culture medium to conventional screening concentrations: 100, 20, 4, 0.8 μg/mL. The cultivated H9 cells were divided into two portions, one of which was infected with HIV virus (IIIB) (m.i.o. 0.1-0.01 infectious Units/cell), and used for the determination of activity. Another portion of the cells, in which no virus, but merely culture medium was added, was used for the determination of toxicity. After having been cultivated under completely the same conditions (37° C., 5% CO2) for 4 h, the two portions of cells were washed with fresh culture medium for 3 times, and then respectively added to different concentrations of test samples as formulated or to blank culture medium (the latter is positive infection control or negative drug control), while using AZT as positive drug control. All of these cells were cultivated under the conditions of 5% CO2, 37° C. for 4 days. On the 4th day, the cell membranes of the cells infected with virus were firstly removed, and the cytosol was tested by using P24 antigen ELISA assay to determine the activity of the samples, which was expressed as EC50. EC50 meant an effective concentration at which 50% of virus replication was inhibited. The portion of cells in which no virus was added was tested by using cytometry to determine the toxicity of the samples, which was expressed as CC50. CC50 meant a concentration at which 50% of living cells were killed.
(In general: An ELISA detects its analyte on a solid surface through an enzyme-linked reagent.)

The nature of data set [2]: Toxicity in uninfected H9 cells. The note with it: human, uninfected H9 lymphocytes, no virus. Format: cell-based. As for the experimental part: as §1, with “All of these cells were cultivated under the conditions of 5% CO2, 37° C. for 4 days.” left out, “EC50 meant an effective concentration at which 50% of virus replication was inhibited.” left out, “CC50 meant a concentration at which 50% of living cells were killed.” left out

A further data set relates to HIV-1IIIB virus strain. Put plainly: Anti-HIV activity test (MT-2 cell model), p24 antigen ELISA. Format: cell-based. The following applies: MT-2 cells; for EC50: Human immunodeficiency virus 1, MT2, HIV-1IIIB, 4th day, p24 antigen; for SI(CC50/EC50): ratio of toxicity CC50 value to activity EC50 value. The method, then:
Please refer to the document (Jiang, S., et al. Antimicrob. Agents Chemother. 2004, 48, 4349-4359). In a 96-pore cell culture plate, 50 μl of different concentrations of compound solutions were respectively mixed with equal-volume of HIV-1IIIB virus strain (100 TCID50), and incubated at 37° C. for 30 min, and then 100 μl MT-2 cell (1×10^5/mL, RPIM 1640 culture medium containing 10% serum) was added, and mixed homogenously, followed by incubation at 37° C. overnight. On the second day, 150 μl of the supernatant was sucked out, and equal-volume of fresh culture medium was replenished, followed by further incubation at 37° C. for 3 days. On the 4th day, cytopathic effect (CPE) was recorded. Thereafter, 100 μl of culture supernatant was sucked out, virus particles were split using 5% Triton X-100, and p24 antigen therein was tested by using ELISA assay. Briefly, a ELISA plate was coated with HIVIG (2 μg/mL), and blocked with 1% fat-free milk, then a virus lysate was added therein, followed by incubation at 37° C. for 60 min. After fully washing the plate, anti-p24 monoclonal antibody-183-12H-5C, biotin-labeled goat antimouse antibody and […]-labeled horseradish peroxidase were added in sequence. Then, after developing with TMB, OD was tested at 450 nm. The 50% effective concentration (EC50) of the compound was calculated using CalcuSyn software.

What is called CC50 is the concentration at which the toxic effect on the cells reaches its halfway point. A higher CC50 goes with lower toxicity to the cells. A word on the EC50: it is the concentration needed to bring the measured effect to its halfway point. Higher therefore signals a need for much substance. With `Cc1cc(Br)cc(C)c1Oc1ccc([N+](=O)[O-])c(Nc2ccc(C#N)cc2)n1` [Compound I-1, 2-(4-cyanophenylamino)-6-(2,6-dimethyl-4-bromophenoxy)-3-nitropyridine], the CC50 at 4 days was 32.2 µg/mL (≈ 73.4 µM) in data set [1] and 19.4 µg/mL (≈ 44.1 µM) in data set [2]. Besides, the “SI(CC50/EC50)” value with HIV virus (IIIB) is given as over 774; with HIV-1IIIB virus strain it was 62. Also, the EC50 in the data set on HIV virus (IIIB) is under 0.025 µg/mL; with HIV-1IIIB virus strain, 0.52 µg/mL (≈ 1.18 µM).

`Cc1cc(C#N)cc(C)c1Oc1ccc([N+](=O)[O-])c(Nc2ccc(C#N)cc2)n1` [Compound I-2, 2-(4-cyanophenylamino)-6-(2,6-dimethyl-4-cyanophenoxy)-3-nitropyridine]: the CC50 at 4 days is 19.3 µg/mL (≈ 50.1 µM) in data set [1] and over 25 µg/mL in data set [2]. The “SI(CC50/EC50)” value is given as >10,000 in the data set on HIV virus (IIIB) and 371 with HIV-1IIIB virus strain. In addition, the EC50 in the data set on HIV virus (IIIB) was 0.0025 µg/mL (≈ 0.00649 µM); in the data set on HIV-1IIIB virus strain it was 0.052 µg/mL (≈ 0.135 µM).

As a reminder, the melting point is the temperature, or range, at which the solid turns liquid. Compound `N#Cc1ccc(Nc2nc(Oc3c(Br)cc(CO)cc3Br)ccc2[N+](=O)[O-])cc1` [Compound I-28, 2-(4-cyanophenylamino)-6-(2,6-dibromo-4-hydroxymethylphenoxy)-3-nitropyridine] displayed a melting point of 209 to 213 °C. In data set [1], this compound gave a CC50 at 4 days of 36.3 µg/mL (≈ 69.8 µM). In addition, in the data set on HIV-1IIIB virus strain, the midpoint of the response, the EC50, lay at 0.253 µg/mL (≈ 0.486 µM) and the “SI(CC50/EC50)” value stood at 145.

The compound `N#Cc1ccc(Nc2nc(Oc3c(F)cccc3F)ccc2[N+](=O)[O-])cc1` [Compound I-29, 2-(4-cyanophenylamino)-6-(2,6-difluorophenoxy)-3-nitropyridine] gave a melting point of 234 to 236 °C. Further, the 50% cytotoxic concentration (CC50) at 4 days in data set [1] turned out to be 39.7 µg/mL (≈ 108 µM). In the data set on HIV-1IIIB virus strain, it took 15.9 µg/mL (≈ 43.2 µM) to reach a half-maximal effect (EC50) and the “SI(CC50/EC50)” value turned out to be 2.

`N#CC=Cc1cc(Br)c(Oc2ccc([N+](=O)[O-])c(Nc3ccc(C#N)cc3)n2)c(Br)c1` [Compound I-30, 2-(4-cyanophenylamino)-6-(2,6-dibromo-4-cyanovinylphenoxy)-3-nitropyridine] displayed a melting point of 223 to 226 °C. For the same compound, half-maximal cytotoxicity in data set [1] (CC50 at 4 days) was put at 24.8 µg/mL (≈ 45.8 µM). Besides, in the data set with HIV-1IIIB virus strain, the EC50 came out at 0.045 µg/mL (≈ 0.0832 µM) and the “SI(CC50/EC50)” value turned out to be 551.
